According to patent US20100099561A1, “HETEROBICYCLIC ALKYLTHIO-BRIDGED ISOXAZOLINES” (E.I. DU PONT DE NEMOURS AND COMPANY, priority 2008, published 2010):

Columns and labels:
Assay type in all cases: in vivo
[1] = tested on: velvetleaf (Abutilon theophrasti); assay: Test B preemergence, velvetleaf; details: Preemergence, scale 0 to 100
In short: (§1)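 Visual injury rating, 0 (no effect) to 100 (complete control), made versus controls after 13 to 15 days in the greenhouse. Compounds were applied preemergence in a surfactant-containing non-phytotoxic solvent to seeds planted in loam/sand soil.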

soybean (Glycine max) = assay: Test B preemergence, soybean; details: Preemergence, scale 0 to 100
In short: as §1

[2] = tested on: lambsquarters (Chenopodium album); assay: Test B preemergence, lambsquarters; details: scale 0 to 100
In short: as §1

[3] = tested on: morningglory (Ipomoea spp.); assay: Test A preemergence, morningglory; details: 0 to 100 scale (0 no effect, 100 complete control)
In short: (§2)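 Scores reflect visual plant injury on a 0 (no effect) to 100 (complete control) scale, assessed about ten days after application in the greenhouse. Compounds were delivered in a non-phytotoxic solvent blend with surfactant, either preemergence to soil or postemergence at one- to two-leaf stage.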

[4] = tested on: large crabgrass (Digitaria sanguinalis); assay: Test A postemergence, large crabgrass; details: 0 to 100 scale (0 no effect, 100 complete control)
In short: as §2

[5] = tested on: nightshade (eastern black nightshade, Solanum ptycanthum); assay: Test B preemergence, nightshade; details: scale 0 to 100
In short: as §1

[6] = tested on: ragweed (common ragweed, Ambrosia elatior); assay: Test B preemergence, ragweed; details: scale 0 to 100
In short: as §1

[7] = tested on: Italian ryegrass (Lolium multiflorum); assay: Test B preemergence, Italian ryegrass; details: Preemergence, scale 0 to 100
In short: as §1

[8] = tested on: Surinam grass (Brachiaria decumbens); assay: Test B preemergence, Surinam grass; details: Preemergence, scale 0 to 100
In short: as §1

wild oat (Avena fatua) = assay: Test B preemergence, wild oat; details: scale 0 to 100
In short: as §1

[9] = tested on: large crabgrass (Digitaria sanguinalis); assay: Test B preemergence, large crabgrass; details: scale 0 to 100
In short: as §1

[10] = tested on: blackgrass (Alopecurus myosuroides); assay: Test B preemergence, blackgrass; details: scale 0 to 100
In short: as §1

[11] = tested on: morningglory (Ipomoea coccinea); assay: Test B preemergence, morningglory; details: scale 0 to 100
In short: as §1

[12] = tested on: pigweed (Amaranthus retroflexus); assay: Test B preemergence, pigweed; details: scale 0 to 100
In short: as §1

[13] = tested on: morningglory (Ipomoea spp.); assay: Test A postemergence, morningglory; details: 0 to 100 scale (0 no effect, 100 complete control)
In short: as §2

[14] = tested on: woolly cupgrass (Eriochloa villosa); assay: Test B preemergence, woolly cupgrass; details: scale 0 to 100
In short: as §1

[15] = tested on: bermudagrass (Cynodon dactylon); assay: Test B preemergence, bermudagrass; details: scale 0 to 100
In short: as §1

[16] = tested on: wheat (Triticum aestivum); assay: Test A preemergence, wheat; details: 0 to 100 scale (0 no effect, 100 complete control)
In short: as §2

[17] = tested on: downy bromegrass (Bromus tectorum); assay: Test B preemergence, downy bromegrass; details: scale 0 to 100
In short: as §1

[18] = tested on: wheat (Triticum aestivum); assay: Test A postemergence, wheat; details: 0 to 100 scale (0 no effect, 100 complete control)
In short: as §2

[19] = tested on: barnyardgrass (Echinochloa crus-galli); assay: Test A postemergence, barnyardgrass; details: 0 to 100 scale (0 no effect, 100 complete control)
In short: as §2

SMILES: CC1(C)CC(S(=O)(=O)Cc2c(C(F)(F)F)nc3n(c2=O)CCS3)=NO1 [Compound 6]
- Plant response rating, Velvetleaf ([1]; 16 g ai/ha): 0
- Plant response rating, Velvetleaf ([1]; 31 g ai/ha): 0
- Plant response rating, Velvetleaf ([1]; 62 g ai/ha): 0
- Plant response rating, Velvetleaf ([1]; 125 g ai/ha): 0
- Plant response rating, Soybean (soybean (Glycine max); 16 g ai/ha): 0
- Plant response rating, Soybean (soybean (Glycine max); 31 g ai/ha): 0
- Plant response rating, Soybean (soybean (Glycine max); 62 g ai/ha): 0
- Plant response rating, Soybean (soybean (Glycine max); 125 g ai/ha): 0
- Plant response rating, Lambsquarters ([2]; 16 g ai/ha): 0
- Plant response rating, Lambsquarters ([2]; 31 g ai/ha): 20
- Plant response rating, Lambsquarters ([2]; 62 g ai/ha): 90
- Plant response rating, Lambsquarters ([2]; 125 g ai/ha): 95
- Plant response rating, Morningglory ([3]; 125 g ai/ha): 90
- Plant response rating, Morningglory ([3]; 500 g ai/ha): 100
- Plant response rating, Crabgrass, Large ([4]; 125 g ai/ha): 80
- Plant response rating, Crabgrass, Large ([4]; 500 g ai/ha): 90
- Plant response rating, Nightshade ([5]; 16 g ai/ha): 0
- Plant response rating, Nightshade ([5]; 31 g ai/ha): 45
- Plant response rating, Nightshade ([5]; 62 g ai/ha): 95
- Plant response rating, Nightshade ([5]; 125 g ai/ha): 98
- Plant response rating, Ragweed ([6]; 16 g ai/ha): 0
- Plant response rating, Ragweed ([6]; 31 g ai/ha): 0
- Plant response rating, Ragweed ([6]; 62 g ai/ha): 25
- Plant response rating, Ragweed ([6]; 125 g ai/ha): 35
- Plant response rating, Ryegrass, Italian ([7]; 16 g ai/ha): 0
- Plant response rating, Ryegrass, Italian ([7]; 31 g ai/ha): 15
- Plant response rating, Ryegrass, Italian ([7]; 62 g ai/ha): 80
- Plant response rating, Ryegrass, Italian ([7]; 125 g ai/ha): 95
- Plant response rating, Surinam Grass ([8]; 16 g ai/ha): 20
- Plant response rating, Surinam Grass ([8]; 31 g ai/ha): 60
- Plant response rating, Surinam Grass ([8]; 62 g ai/ha): 98
- Plant response rating, Surinam Grass ([8]; 125 g ai/ha): 100
- Plant response rating, Oat, Wild (wild oat (Avena fatua); 16 g ai/ha): 30
- Plant response rating, Oat, Wild (wild oat (Avena fatua); 31 g ai/ha): 45
- Plant response rating, Oat, Wild (wild oat (Avena fatua); 62 g ai/ha): 60
- Plant response rating, Oat, Wild (wild oat (Avena fatua); 125 g ai/ha): 60
- Plant response rating, Crabgrass, Large ([9]; 16 g ai/ha): 95
- Plant response rating, Crabgrass, Large ([9]; 31 g ai/ha): 100
- Plant response rating, Crabgrass, Large ([9]; 62 g ai/ha): 100
- Plant response rating, Crabgrass, Large ([9]; 125 g ai/ha): 100
- Plant response rating, Blackgrass ([10]; 16 g ai/ha): 50
- Plant response rating, Blackgrass ([10]; 31 g ai/ha): 80
- Plant response rating, Blackgrass ([10]; 62 g ai/ha): 95
- Plant response rating, Blackgrass ([10]; 125 g ai/ha): 95
- Plant response rating, Morningglory ([11]; 16 g ai/ha): 0
- Plant response rating, Morningglory ([11]; 31 g ai/ha): 0
- Plant response rating, Morningglory ([11]; 62 g ai/ha): 0
- Plant response rating, Morningglory ([11]; 125 g ai/ha): 0
- Plant response rating, Pigweed ([12]; 16 g ai/ha): 0
- Plant response rating, Pigweed ([12]; 31 g ai/ha): 50
- Plant response rating, Pigweed ([12]; 62 g ai/ha): 100
- Plant response rating, Pigweed ([12]; 125 g ai/ha): 100
- Plant response rating, Morningglory ([13]; 125 g ai/ha): 40
- Plant response rating, Morningglory ([13]; 500 g ai/ha): 50
- Plant response rating, Cupgrass, Woolly ([14]; 16 g ai/ha): 60
- Plant response rating, Cupgrass, Woolly ([14]; 31 g ai/ha): 98
- Plant response rating, Cupgrass, Woolly ([14]; 62 g ai/ha): 98
- Plant response rating, Cupgrass, Woolly ([14]; 125 g ai/ha): 100
- Plant response rating, Bermudagrass ([15]; 16 g ai/ha): 100
- Plant response rating, Bermudagrass ([15]; 31 g ai/ha): 100
- Plant response rating, Bermudagrass ([15]; 62 g ai/ha): 100
- Plant response rating, Bermudagrass ([15]; 125 g ai/ha): 100
- Plant response rating, Wheat ([16]; 125 g ai/ha): 0
- Plant response rating, Wheat ([16]; 500 g ai/ha): 0
- Plant response rating, Bromegrass, Downy ([17]; 16 g ai/ha): 0
- Plant response rating, Bromegrass, Downy ([17]; 31 g ai/ha): 20
- Plant response rating, Bromegrass, Downy ([17]; 62 g ai/ha): 20
- Plant response rating, Bromegrass, Downy ([17]; 125 g ai/ha): 50
- Plant response rating, Wheat ([18]; 125 g ai/ha): 20
- Plant response rating, Wheat ([18]; 500 g ai/ha): 30
- Plant response rating, Barnyardgrass ([19]; 125 g ai/ha): 70
- Plant response rating, Barnyardgrass ([19]; 500 g ai/ha): 80
